Source: patent US6342516B1, “Phenylazole compounds, process for producing the same and drugs for hyperlipemia” (Nippon Soda Co., Ltd., priority 1998, dated 2002)

Columns and labels:
[1] = system: Lipid peroxidation activity in rat liver microsome; assay: Effect on lipid peroxidation in vitro (rat liver microsome, thiobarbituric acid method); format: biochemical; settings: rat liver microsomes, 500 μM cystein and 5 μM ferrous(II) sulfate, malonaldehyde by thiobarbituric acid method; read-out: Lipid Antiperoxidation Activity 50% Inhibition Concentration (IC50)
Protocol: Pharmacological Test Example 2: Effect on lipid peroxidation in vitro
Lipid peroxidation activity in rat liver microsome was determined according to the method of Malvy et al. (Malvy et al., Biochemical and Biophysical Research Communications, 95, 734-737 (1980)). More particularly, 500 μM cystein and 5 μM ferrous(II) sulfate were incubated with rat liver microsomes, and the amount of malonaldehyde produced due to the decomposition of lipid peroxide was determined according to thiobarbituric acid method. The concentration of the compounds required to inhibit the formation of lipid peroxide by 50% (IC50) was calculated.

cholesterol-fed hamsters = assay: Effect on serum lipids of cholesterol-fed hamsters (serum total cholesterol and triglyceride reduction rate); format: in vivo; settings: cholesterol-fed Syrian hamsters, oral once a day for 5 days
Protocol: Pharmacological Test Example 1: Effect on serum lipids of cholesterol-fed hamsters
Syrian hamsters (Std:Syrian, Male, 4 weeks old) were freely fed with chow containing 1% cholesterol and 10% coconut oil for 3 weeks ad libitum.
At the last week of feeding, each of the test compounds was dissolved or suspended in either 0.1% hydrochloric acid solution or 1% polyethylene-hydrogenated castor oil (NIKKOL HCO-60) solution and was orally administrated to hamsters once a day for 5 days. For the hamsters of the control group, only the solvent was orally administered. Then, blood was collected from the abdominal vein under the condition of anesthesia with pentobarbital at 2-4 hours after the last administration, and the serum in the blood was separated. The serum total cholesterol value and the serum triglyceride value were determined by using autobiochemical analyzer with analizing kits, and reduction rate of the serum lipids was determined according to the equation indicated below based on the analyzed values for respective hamster groups.
Serum lipids reduction rate (%)=(Amount of serum lipids of the control group−Amount of serum lipids of the group administrated with the test compound)/Amount of serum lipids of the control group×100

IC50 [1] | SMILES | Serum lipids reduction rate comparing to Control group (%), Means of 3 animals: Total cholesterol (cholesterol-fed hamsters; dose 25 mg/kg) | Serum lipids reduction rate comparing to Control group (%), Means of 3 animals: Triglyceride (cholesterol-fed hamsters; dose 25 mg/kg) | Serum lipids reduction rate comparing to Control group (%), Means of 3 animals: Total cholesterol (cholesterol-fed hamsters; dose 12.5 mg/kg) | Serum lipids reduction rate comparing to Control group (%), Means of 3 animals: Triglyceride (cholesterol-fed hamsters; dose 12.5 mg/kg)
2600 nM | Cc1c(C)c2c(c(C)c1OC(=O)c1ccccc1)CCC(C)(C(=O)Nc1ccc(-n3ccnc3)cc1)O2 (racemic) [3-14] | 22% | 31% |  | 
2300 nM | Cc1c(C)c2c(c(C)c1O)CCC(C)(CC(=O)Nc1ccc(-n3ccnc3)cc1)O2 (racemic) [3-4] | 37% | 80% |  | 
920 nM | Cc1c(C)c2c(c(C)c1O)CC(C)(C=CC(=O)Nc1ccc(-n3ccnc3)cc1)O2 (racemic) [3-15] | 26% | 30% |  | 
490 nM | Cc1c(C)c2c(c(C)c1O)CCC(C)(C(=O)Nc1ccc(-c3ccn[nH]3)cc1)O2 (racemic) [Compound No. 3-25, (±)-(6-hydroxy-2,5,7,8-tetramethylchroman-2-yl)-N-[4-(pyrrazol-5-yl)phenyl]carboxamide] |  |  |  | 
3800 nM | Cc1c(C)c2c(c(C)c1O)CCC(C)(C(=O)NCCCCCC(=O)Nc1ccc(-n3ccnc3)cc1)O2 (racemic) [3-8] |  |  |  | 
2800 nM | CC(=O)Oc1c(C)c(C)c2c(c1C)CC(C)(C(=O)Nc1ccc(-n3ccnc3)cc1)O2 (racemic) [3-13] |  |  |  | 
1300 nM | Cc1c(C)c2c(c(C)c1O)CCC(C)(CCC(=O)Nc1ccc(-n3ccnc3)cc1)O2 (racemic) [3-5] |  |  |  | 
2100 nM | Cc1c(C)c2c(c(C)c1O)CC(C)(CCC(=O)Nc1ccc(-n3ccnc3)cc1)O2 (racemic) [3-10] | 35% | 51% |  | 
2500 nM | Cc1c(C)c2c(c(C)c1O)CC(C)(CCCCC(=O)Nc1ccc(-n3ccnc3)cc1)O2 (racemic) [3-12] |  |  |  | 
2100 nM | Cc1c(C)c2c(c(C)c1O)CC(C)(C=CC=CC(=O)Nc1ccc(-n3ccnc3)cc1)O2 (racemic) [3-16] |  |  |  | 
1900 nM | Cc1c(C)c2c(c(C)c1O)CC(C)(C(=O)Nc1ccc(-n3ccnc3)cc1)O2 (racemic) [3-9] | 38% | 49% |  | 
 | CC12CCC(C(=O)Nc3ccc(-n4ccnc4)cc3)(OC1=O)C2(C)C (stereo not shown) [4-19] | 19% | 50% |  | 
 | O=C(Nc1ccc(-n2ccnc2)cc1)c1cnc2ccccc2n1 [4-37] |  |  | 26% | 25%
 | O=C(CC1CCc2sccc2C1=O)Nc1ccc(-n2ccnc2)cc1 (stereo not shown) [4-72] | 37% | 53% |  | 
 | O=C(Nc1ccc(-n2ccnc2)cc1)c1ccc(Cl)nc1 [4-25] |  |  | 25% | 52%
 | O=C(Nc1ccc(-n2ccnc2)cc1)c1ccc[nH]1 [4-38] |  |  | 32% | 31%
 | O=C(COc1ccc2ccccc2n1)Nc1ccc(-n2ccnc2)cc1 [4-96] | 36% | 50% |  | 
 | O=C(Nc1ccc(-n2ccnc2)cc1)C1CCCO1 (racemic) [4-17] |  |  | 35% | 53%
420 nM | CC(=O)Oc1c(C)c(C)c2c(c1C)CC(C)(C(=O)Nc1ccc(-c3ccn[nH]3)cc1)O2 (racemic) [3-19] |  |  |  | 

SMILES | IC50 [1] | Serum lipids reduction rate comparing to Control group (%), Means of 3 animals: Total cholesterol (cholesterol-fed hamsters; dose 25 mg/kg) | Serum lipids reduction rate comparing to Control group (%), Means of 3 animals: Triglyceride (cholesterol-fed hamsters; dose 25 mg/kg) | Serum lipids reduction rate comparing to Control group (%), Means of 3 animals: Total cholesterol (cholesterol-fed hamsters; dose 12.5 mg/kg) | Serum lipids reduction rate comparing to Control group (%), Means of 3 animals: Triglyceride (cholesterol-fed hamsters; dose 12.5 mg/kg)
Cc1cc(C(C)(C)C)c(O)c(C(C)(C)C)c1 [BHT, 2,6-t-Dibutyl-p-cresol, reference compound] | 2200 nM |  |  |  | 
